{
  "source": "patent US12599554B2",
  "about": "“Pharmaceutical formulations comprising tadalafil” (KYDES PHARMACEUTICALS, LLC, priority 2020, dated 2026)",
  "key": {"[1]": {"settings": "cited from earlier work"}, "[2]": {"settings": "cited from earlier work", "remark": "listed apart in the source"}, "[3]": {"experiment": "Solubility of tadalafil in aqueous media and solvents; precipitation on adding water", "format": "physicochemical", "excerpt": "Tadalafil is soluble in 2-pyrollidone, but the use of 2-pyrollidone as a solvent is limited by color formation, unpalatable taste, and incompatibility with plastic components of metered-dose delivery systems. […] Compatibility with the pumps was improved with water in an amount of at least 10% weight in volume."}},
  "data": [
    {"compound": "CN1CC(=O)N2[C@H](c3ccc4c(c3)OCO4)c3[nH]c4ccccc4c3C[C@@H]2C1=O", "note": "[Tadalafil, (2R,8R)-2-(1,3-benzodioxol-5-yl)-6-methyl-3,6,17-triazatetracyclo[8.7.0.0^3,8.0^11,16]heptadeca-1(10),11,13,15-tetraene-4,7-dione]", "values": [
      {"measurement": "bioavailability in humans", "setting": "[1]", "result": 80, "unit": "%"},
      {"measurement": "solubility in aqueous media", "setting": "[2]", "result": "insoluble"},
      {"measurement": "solubility in 2-pyrollidone", "setting": "[3]; 2-pyrollidone", "result": "soluble"},
      {"measurement": "solubility in propylene carbonate", "setting": "[3]; propylene carbonate", "result": "soluble"}
    ]}
  ]
}
